# Measurements: paper PMC10804372, “Degradation by Design: New Cyclin K Degraders from Old CDK Inhibitors” (ACS Chemical Biology, 2024)
# What was measured:
# Cyclin K [1] = experiment: Cyclin K levels by Western blot after single-concentration treatment; format: cell-based, human; conditions: HEK293T cells, 1 μM for 2 h, quantified from Western blots, mean ± SD, three independent experiments
# Method: (§1) HEK293T human […] kidney cells were cultured in DMEM (Gibco/Life Technologies), containing 25 mM D-glucose, 4 mM L-glutamine, and 1 mM sodium pyruvate, and supplemented with 10% (v/v) FBS and 1% nonessential amino acids (Gibco/Life Technologies). Cells were incubated at 37 °C in a humidified atmosphere with 5% CO2.
# (§2) Cells were washed with PBS and lysed (20 mM HEPES pH 7.5, 10% glycerol, 0.4 M KCl, 0.4% Triton X-100, 15 mM EDTA, and 1× protease and phosphatase inhibitors). The insoluble fraction was removed by centrifugation. Protein quantification was performed using a Bradford assay and compared to a BSA calibration curve. Equal amounts of lysates were run on SDS–PAGE 4–12% Bis–Tris Protein Gels (NuPAGE, Thermo Fisher Scientific) and then transferred onto Immobilon-P PVDF Membrane (Millipore, IPVH00010) using a Mini Trans-Blot Cell (Bio-Rad, 1703930). The membranes were blocked with 5% bovine albumin serum (BSA) in Tris-buffered saline with Tween 20 (TBS-T) and incubated with primary antibodies overnight at 4 °C. The membranes were washed three times with TBS-T and incubated with HRP-conjugated secondary antibody (BioRad) for 2 h. Membranes were washed again three times with TBS-T before being developed using Pierce ECL Western Blotting Substrate (Thermo, 32106) and visualized using LI-COR. Antibodies were purchased from Cell Signaling Technology: anti-GAPDH (D4C6R) and anti-DDB1 (D4C8) or Bethyl Laboratories: anti-Cyclin K (A301-939A). The following HRP-linked secondary antibodies were used by dilution in 5% BSA/TBS-T: antirabbit IgG (BioRad, 5213–2504) and antimouse IgG (BioRad, 103005).
# (§3) Unedited blots containing the marker lane are available on request. Western blots were quantified using ImageJ. Cyclin K levels were normalized using GAPDH as a loading control. DC50 values were calculated from concentration–response curves using nonlinear regression fit to a 4-parameter curve by GraphPad Prism.
# CDK12 / DDB1 = test system: CDK12 / DDB1; parameters: method as in PMID 32494016; conditions: in vitro; cited from earlier work
# [2] = parameters: method as in PMID 32494016; conditions: after 5 h of treatment; cited from earlier work
# Cyclin K [3] = experiment: Cyclin K degradation concentration-response (DC50, DMax) by Western blot; format: cell-based, human; conditions: HEK293T, Western blot quantification, 3 biological repeats
# Method: With the aim of comparing the degradation ability of the new analogues, we derived DC50 values by using Western blotting (Table 5). […] This approach has been previously used to improve the potency of BCL6 degraders.[33] We therefore also measured CDK12 affinity using the KINOMEscan binding assay (Table 5).[34]
# as §1, §2, §3
# PAMPA permeability = format: in vitro ADME; conditions: pH 7.4; PAMPA, pH7.4; read-out: pH7.4 Papp x 10^-6
smiles,measurement,setting,value
"CC[C@H](CO)Nc1nc(NCc2ccc(-c3ccccn3)cc2)c2ncn(C(C)C)c2n1 [compound 1, reference compound]",Remaining Cyclin K (%),Cyclin K [1],1 ± 1%
same,stabilization of the CDK12-DDB1 interaction compared to apo-form,CDK12 / DDB1,1000 fold
same,Papp,PAMPA permeability,45.4 ×10⁻⁶ cm/s
